Assay results as given in ChEMBL document CHEMBL3046612, “Design, multicomponent synthesis, and bioactivities of novel neonicotinoid analogues with 1,4-dihydropyridine scaffold” (2010).

What was measured:
[1] = tested on: Aphis craccivora; assay: Insecticidal activity against Aphis craccivora (cowpea aphid) in tender shoots of soybean assessed as mortality measured after 1 days; format: functional; details: 24 h
[2] = tested on: Aphis craccivora; assay: Insecticidal activity against Aphis craccivora (cowpea aphid) in tender shoots of soybean assessed as mortality at 500 mg/L measured after 1 days (reference value: 4.3%); format: functional; details: 24 h

Row | SMILES | LC50 [1] [µM] | mortality at 500 µg/mL [2] [%]
1 | Cc1c(F)cccc1C1C(C#N)=C(N)N2CCN(Cc3ccc(Cl)nc3)C2=C1[N+](=O)[O-] (stereo unspecified) | 3.45 | 100
2 | N#CC1=C(N)N2CCN(Cc3ccc(Cl)nc3)C2=C([N+](=O)[O-])C1c1cccc([N+](=O)[O-])c1 (stereo unspecified) | 79 | 91.9
3 | Cc1cc(C2C(C#N)=C(N)N3CCN(Cc4ccc(Cl)nc4)C3=C2[N+](=O)[O-])c(Br)cc1F (stereo unspecified) | – | 75.9
4 | N#CC1=C(N)N2CCN(Cc3ccc(Cl)nc3)C2=C([N+](=O)[O-])C1c1ccccc1 (stereo unspecified) | – | 83.1
5 | N#CC1=C(N)N2CCN(Cc3ccc(Cl)nc3)C2=C([N+](=O)[O-])C1c1ccc([N+](=O)[O-])cc1 (stereo unspecified) | – | 77
6 | O=[N+]([O-])/N=C1\NCCN1Cc1ccc(Cl)nc1 [IMIDACLOPRID] | – | 100
7 | Cc1ccc(F)cc1C1C(C#N)=C(N)N2CCN(Cc3ccc(Cl)nc3)C2=C1[N+](=O)[O-] (stereo unspecified) | 96.1 | 100
8 | N#CC1=C(N)N2CCN(Cc3ccc(Cl)nc3)C2=C([N+](=O)[O-])C1c1ccc(Cl)cc1C(F)(F)F (stereo unspecified) | 61.6 | 100
9 | N#CC1=C(N)N2CCN(Cc3ccc(Cl)nc3)C2=C([N+](=O)[O-])C1c1ccc(Cl)cc1F (stereo unspecified) | – | 88
10 | N#CC1=C(N)N2CCN(Cc3ccc(Cl)nc3)C2=C([N+](=O)[O-])C1c1cccc(C#N)c1 (stereo unspecified) | – | 80
11 | COc1ccc(C2C(C#N)=C(N)N3CCN(Cc4ccc(Cl)nc4)C3=C2[N+](=O)[O-])cc1 (stereo unspecified) | 9.75 | 100
12 | Cc1ccc(C2C(C#N)=C(N)N3CCN(Cc4ccc(Cl)nc4)C3=C2[N+](=O)[O-])c(F)c1 (stereo unspecified) | – | 72.9
13 | N#CC1=C(N)N2CCN(Cc3ccc(Cl)nc3)C2=C([N+](=O)[O-])C1c1ccc(Cl)cc1Cl (stereo unspecified) | 133 | 93.4
14 | N#CC1=C(N)N2CCN(Cc3ccc(Cl)nc3)C2=C([N+](=O)[O-])C1c1ccc(Br)cc1Cl (stereo unspecified) | – | 85
15 | N#CC1=C(N)N2CCN(Cc3ccc(Cl)nc3)C2=C([N+](=O)[O-])C1c1ccc(OC(F)(F)F)cc1 (stereo unspecified) | 98 | 100
16 | N#CC1=C(N)N2CCN(Cc3ccc(Cl)nc3)C2=C([N+](=O)[O-])C1c1ccc(C#N)cc1 (stereo unspecified) | 175 | 93.7
17 | N#CC1=C(N)N2CCN(Cc3ccc(Cl)nc3)C2=C([N+](=O)[O-])C1c1cccc(Br)c1 (stereo unspecified) | 197 | 91.8
